Results published in PubChem BioAssay AID248 (DTP/NCI, 2004).
Inconclusive results and toxic doses are left out.

Tested on: L1210 leukemia ip in BDF1 mice, survival T/C
Experiment: NCI In Vivo Anticancer Drug Screen. Data for tumor model L1210 Leukemia (intraperitoneal) in B6D2F1 (BDF1) mice
Settings: endpoint: mean survival time, higher = longer survival
Outline: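 Survival endpoint. Drug-treated group vs vehicle group, expressed as T divided by C. Tumor passaged by transplantation.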

[1] = dose: 12.5 mg/kg/injection, schedule: Q01DX009 (ip), vehicle: saline
[2] = dose: 25.0 mg/kg/injection, schedule: Q01DX009 (ip), vehicle: saline
[3] = dose: 50.0 mg/kg/injection, schedule: Q01DX009 (ip), vehicle: saline
[4] = dose: 50.0 mg/kg/injection, schedule: Q04DX003 (ip), vehicle: saline
[5] = dose: 100.0 mg/kg/injection, schedule: Q01DX001 (ip), vehicle: saline
[6] = dose: 200.0 mg/kg/injection, schedule: Q01DX001 (ip), vehicle: saline
[7] = dose: 100.0 mg/kg/injection, schedule: Q04DX003 (ip), vehicle: Klucel (hydroxypropylcellulose) (HPC)
[8] = dose: 200.0 mg/kg/injection, schedule: Q04DX003 (ip), vehicle: Klucel (hydroxypropylcellulose) (HPC)
[9] = dose: 400.0 mg/kg/injection, schedule: Q04DX003 (ip), vehicle: Klucel (hydroxypropylcellulose) (HPC)
[10] = dose: 100.0 mg/kg/injection, schedule: Q01DX001 (ip), vehicle: Klucel (hydroxypropylcellulose) (HPC)
[11] = dose: 200.0 mg/kg/injection, schedule: Q01DX001 (ip), vehicle: Klucel (hydroxypropylcellulose) (HPC)
[12] = dose: 100.0 mg/kg/injection, schedule: Q04DX003 (ip), vehicle: saline with Tween-80
[13] = dose: 200.0 mg/kg/injection, schedule: Q04DX003 (ip), vehicle: saline with Tween-80
[14] = dose: 100.0 mg/kg/injection, schedule: Q01DX001 (ip), vehicle: carboxymethylcellulose (CMC)
[15] = dose: 200.0 mg/kg/injection, schedule: Q01DX001 (ip), vehicle: carboxymethylcellulose (CMC)
[16] = dose: 400.0 mg/kg/injection, schedule: Q01DX001 (ip), vehicle: carboxymethylcellulose (CMC)
[17] = dose: 75.0 mg/kg/injection, schedule: Q01DX009 (ip), vehicle: saline
[18] = dose: 100.0 mg/kg/injection, schedule: Q01DX009 (ip), vehicle: Klucel (hydroxypropylcellulose) (HPC)
[19] = dose: 200.0 mg/kg/injection, schedule: Q01DX009 (ip), vehicle: Klucel (hydroxypropylcellulose) (HPC)
[20] = dose: 400.0 mg/kg/injection, schedule: Q01DX001 (ip), vehicle: saline
[21] = dose: 50.0 mg/kg/injection, schedule: Q04DX003 (ip), vehicle: Klucel (hydroxypropylcellulose) (HPC)
[22] = dose: 50.0 mg/kg/injection, schedule: Q01DX009 (ip), vehicle: Klucel (hydroxypropylcellulose) (HPC)

## CCCCCCCCCCCC[N+](CC)(CC)CC(=O)O
[1]
  T/C: 88 % of control
[2]
  T/C: 97 % of control
[3]
  T/C: 104 % of control
[4]
  T/C: 111 % of control
[5]
  T/C: 93 % of control
[6]
  T/C: 98 % of control

## C(=C\C1SCCCS1)/c1ccccc1
dose: 100.0 mg/kg/injection, schedule: Q04DX002 (ip), vehicle: saline with Tween-80
  T/C: 101 % of control
dose: 200.0 mg/kg/injection, schedule: Q04DX002 (ip), vehicle: saline with Tween-80
  T/C: 114 % of control
dose: 400.0 mg/kg/injection, schedule: Q04DX002 (ip), vehicle: saline with Tween-80
  T/C: 101 % of control

## CCN(CC)C(=O)c1ccc(C(Cl)(Cl)Cl)cc1
dose: 75.0 mg/kg/injection, schedule: Q01DX009 (ip), vehicle: saline sonified
  T/C: 91 % of control
[7]
  T/C: 87 % of control
dose: 150.0 mg/kg/injection, schedule: Q01DX009 (ip), vehicle: saline sonified
  T/C: 91 % of control
[8]
  T/C: 89 % of control
dose: 300.0 mg/kg/injection, schedule: Q01DX009 (ip), vehicle: saline sonified
  T/C: 87 % of control
[9]
  T/C: 91 % of control

## CC(C)C(C)/C=C/C(C)C1CCC2C3CCC4CC(O)CCC4(C)C3CCC12C (stereo unspecified)
[10]
  T/C: 90 % of control
[11]
  T/C: 97 % of control

## Cc1c(NC(=O)Nc2ccc(C3=NCCCN3)cc2)cccc1NC(=O)Nc1ccc(C2=NCCCN2)cc1
dose: 4.0 mg/kg/injection, schedule: Q01DX Z (ip), vehicle: water
  T/C: 96 % of control
dose: 6.0 mg/kg/injection, schedule: Q01DX Z (ip), vehicle: water
  T/C: 121 % of control
dose: 8.0 mg/kg/injection, schedule: Q01DX Z (ip), vehicle: water
  T/C: 109 % of control
dose: 25.0 mg/kg/injection, schedule: Q01DX Z (ip), vehicle: water
  T/C: 215 % of control
dose: 31.0 mg/kg/injection, schedule: Q01DX Z (oral), vehicle: water
  T/C: 113 % of control
dose: 50.0 mg/kg/injection, schedule: Q01DX Z (ip), vehicle: water
  T/C: 162 % of control
dose: 100.0 mg/kg/injection, schedule: Q01DX Z (ip), vehicle: water
  T/C: 191 % of control
dose: 125.0 mg/kg/injection, schedule: Q01DX Z (oral), vehicle: water
  T/C: 108 % of control

## O=C(O)/C=C/C(=O)NNC(=O)/C=C/C(=O)O
[12]
  T/C: 98 % of control
[13]
  T/C: 98 % of control

## O=C1NC(=O)N(Cc2ccccc2)C(=O)C1Cc1ccccc1 (stereo unspecified)
[14]
  T/C: 97 % of control
[15]
  T/C: 95 % of control
[16]
  T/C: 103 % of control

## CN(CCC(=O)c1ccccc1)C(C)(C)C
dose: 100.0 mg/kg/injection, schedule: Q04DX003 (ip), vehicle: saline
  T/C: 100 % of control

## OCC#CC(O)c1ccccc1 (stereo unspecified)
dose: 12.5 mg/kg/injection, schedule: Q01DX001 (ip), vehicle: acetone
  T/C: 94 % of control
[1]
  T/C: 94 % of control
dose: 12.5 mg/kg/injection, schedule: Q04DX003 (ip), vehicle: acetone
  T/C: 97 % of control
dose: 12.5 mg/kg/injection, schedule: Q04DX003 (ip), vehicle: saline
  T/C: 96 % of control
dose: 25.0 mg/kg/injection, schedule: Q01DX001 (ip), vehicle: acetone
  T/C: 97 % of control
[2]
  T/C: 92 % of control
dose: 25.0 mg/kg/injection, schedule: Q04DX003 (ip), vehicle: saline
  T/C: 96 % of control
dose: 50.0 mg/kg/injection, schedule: Q01DX001 (ip), vehicle: acetone
  T/C: 92 % of control
[3]
  T/C: 95 % of control
dose: 50.0 mg/kg/injection, schedule: Q04DX003 (ip), vehicle: acetone
  T/C: 95 % of control
[4]
  T/C: 95 % of control
[17]
  T/C: 98 % of control
dose: 115.0 mg/kg/injection, schedule: Q01DX009 (ip), vehicle: saline
  T/C: 107 % of control

## COc1ccc(N=C(N)NC#N)cc1
[18]
  T/C: 100 % of control
[7]
  T/C: 93 % of control
[19]
  T/C: 97 % of control
[8]
  T/C: 92 % of control
[9]
  T/C: 97 % of control

## N#CC(C#N)=CN
[10]
  T/C: 105 % of control
[11]
  T/C: 106 % of control
dose: 400.0 mg/kg/injection, schedule: Q01DX001 (ip), vehicle: Klucel (hydroxypropylcellulose) (HPC)
  T/C: 101 % of control

## O=C1c2ccccc2-c2cccc(I)c21
[14]
  T/C: 99 % of control
[15]
  T/C: 101 % of control
[16]
  T/C: 92 % of control

## COc1cc2c(c(OC)c1OC)-c1ccc(SC)c(=O)cc1C(N=Cc1ccccc1)CC2 (stereo unspecified)
[12]
  T/C: 106 % of control
[13]
  T/C: 90 % of control

## CC1=CP(=O)(Oc2ccc([N+](=O)[O-])cc2)CC1 (stereo unspecified)
dose: 75.0 mg/kg/injection, schedule: Q01DX001 (ip), vehicle: saline
  T/C: 102 % of control

## COC(=O)c1cc(C)cc(Oc2ccccc2[N+](=O)[O-])c1C
[5]
  T/C: 96 % of control
[6]
  T/C: 98 % of control
[20]
  T/C: 98 % of control

## CC(C)C(NC(=O)CI)C(=O)Nc1ccc(C(=O)O)c(O)c1 (stereo unspecified)
[7]
  T/C: 108 % of control
[8]
  T/C: 94 % of control

## COC(=O)NC1CC2C=CC1C1C=CC21 (stereo unspecified)
[12]
  T/C: 92 % of control
[13]
  T/C: 91 % of control
dose: 400.0 mg/kg/injection, schedule: Q04DX003 (ip), vehicle: saline with Tween-80
  T/C: 100 % of control

## C=C(Br)CN1CCCC1=O
[17]
  T/C: 98 % of control
dose: 150.0 mg/kg/injection, schedule: Q01DX009 (ip), vehicle: saline
  T/C: 106 % of control
dose: 300.0 mg/kg/injection, schedule: Q01DX009 (ip), vehicle: saline
  T/C: 114 % of control

## O=C(N=Nc1c(NNC(=O)c2ccc([N+](=O)[O-])cc2)c(O)c2ccccc2c1O)c1ccc([N+](=O)[O-])cc1
dose: 75.0 mg/kg/injection, schedule: Q04DX003 (ip), vehicle: saline
  T/C: 102 % of control
dose: 150.0 mg/kg/injection, schedule: Q04DX003 (ip), vehicle: saline
  T/C: 89 % of control
dose: 300.0 mg/kg/injection, schedule: Q04DX003 (ip), vehicle: saline
  T/C: 94 % of control

## CC(=O)OC1=C(Cl)C(=O)C(OC(C)=O)=C(Cl)C1=O
[21]
  T/C: 106 % of control
[7]
  T/C: 100 % of control
[8]
  T/C: 100 % of control
[9]
  T/C: 92 % of control

## COC1(OC)C2(Cl)CC(=O)C3CC(=O)C3C1(Cl)C(Cl)=C2Cl (stereo unspecified)
[22]
  T/C: 92 % of control
[5]
  T/C: 100 % of control
[18]
  T/C: 94 % of control
[6]
  T/C: 94 % of control
[19]
  T/C: 102 % of control
[20]
  T/C: 101 % of control

## CN(N=O)C(=O)NCCNc1ncnc2nc[nH]c12
dose: 43.0 mg/kg/injection, schedule: Q01DX Z (ip), vehicle: carboxymethylcellulose (CMC)
  T/C: 86 % of control
dose: 87.0 mg/kg/injection, schedule: Q01DX Z (ip), vehicle: carboxymethylcellulose (CMC)
  T/C: 93 % of control
dose: 175.0 mg/kg/injection, schedule: Q01DX Z (ip), vehicle: carboxymethylcellulose (CMC)
  T/C: 94 % of control
dose: 350.0 mg/kg/injection, schedule: Q01DX Z (ip), vehicle: carboxymethylcellulose (CMC)
  T/C: 114 % of control

## CC(C)=C1C2C=CC1C1C(=O)OC(=O)C21 (stereo unspecified)
dose: 12.5 mg/kg/injection, schedule: Q04DX003 (ip), vehicle: Klucel (hydroxypropylcellulose) (HPC)
  T/C: 107 % of control
dose: 25.0 mg/kg/injection, schedule: Q01DX009 (ip), vehicle: Klucel (hydroxypropylcellulose) (HPC)
  T/C: 98 % of control
dose: 25.0 mg/kg/injection, schedule: Q04DX003 (ip), vehicle: Klucel (hydroxypropylcellulose) (HPC)
  T/C: 96 % of control
[22]
  T/C: 95 % of control
[21]
  T/C: 103 % of control
[10]
  T/C: 94 % of control
[7]
  T/C: 100 % of control

## CN1c2ccc(Br)c[c]2[Sn]([c]2ccccc2)([c]2ccccc2)[c]2cc(Br)ccc21
dose: 100.0 mg/kg/injection, schedule: Q01DX001 (ip), vehicle: other
  T/C: 91 % of control
dose: 200.0 mg/kg/injection, schedule: Q01DX001 (ip), vehicle: other
  T/C: 96 % of control
dose: 400.0 mg/kg/injection, schedule: Q01DX001 (ip), vehicle: other
  T/C: 96 % of control
